Measurements reported in patent US20090118354A1, “Liquid Pharmaceutical Formulations of Docetaxel” (MAYNE PHARMA LIMITED, priority 2005, published 2009).

Assay: Accelerated stability testing: impurity analysis by reverse phase HPLC
Type: physicochemical
Experimental: Each of the formulations prepared was subjected to accelerated stability testing at 40° C.
The analysis of the impurities was undertaken using reverse phase High Performance Liquid Chromatography (HPLC). HPLC is a technique that is widely used and well known in the art. HPLC can be used to measure the potency of the docetaxel where potency is defined as a percentage of the initial concentration of docetaxel. HPLC can also be used to measure the relative proportions of known and unknown impurities in a docetaxel formulation. Any suitable HPLC method which will separate the impurities may be used.
Impurity levels were calculated by peak area normalisation.

[1] = Example 1, one month, accelerated stability 40° C.
[2] = Example 2, one month, accelerated stability 40° C.
[3] = Example 8, Initial (Docetaxel = docetaxel itself)

Impurity B (RRT = 0.89) (Example 1, initial time point): 0.08 % peak area
Impurity E (RRT = 1.33) (Example 1, initial time point): 0.07 % peak area
Impurity F (RRT = 1.47) (Example 1, initial time point): 0.10 % peak area
Total Impurities (Example 1, initial time point): 0.25 % peak area
Impurity B (RRT = 0.89) [1]: 0.08 % peak area
Impurity E (RRT = 1.33) [1]: 0.07 % peak area
Impurity F (RRT = 1.47) [1]: 0.10 % peak area
Total Impurities [1]: 0.25 % peak area
Impurity E (RRT = 1.34) (Example 2, initial time point): 0.16 % peak area
Impurity F (RRT = 1.48) (Example 2, initial time point): 0.09 % peak area
Total Impurities (Example 2, initial time point): 0.25 % peak area
Impurity E (RRT = 1.34) [2]: 0.16 % peak area
Impurity F (RRT = 1.48) [2]: 0.09 % peak area
Total Impurities [2]: 0.25 % peak area
Impurity RRT 0.866 [3]: 0.05 % peak area
Impurity RRT 1.821 [3]: 0.08 % peak area
Total impurity [3]: 0.13 % peak area
Compound: CC(=O)O[C@@]12CO[C@@H]1C[C@H](O)[C@@]1(C)C(=O)[C@H](O)C3=C(C)[C@@H](OC(=O)[C@H](O)[C@@H](NC(=O)OC(C)(C)C)c4ccccc4)C[C@@](O)([C@@H](OC(=O)c4ccccc4)[C@H]21)C3(C)C [Docetaxel, (2R,3S)-N-carboxy-3-phenylisoserine,N-tert-butylester, 13 ester with 5β-20-epoxy-1,2α,4,7β,10β,13α-hexahydroxytax-11-en-9-one 4-acetate 2 benzoate]
